Experimental data from ChEMBL document CHEMBL4765275, “Discovery of novel tertiary amide derivatives as NEDDylation pathway activators to inhibit the tumor progression in vitro and in vivo” (Eur J Med Chem, 2020).
Activity calls are given as the source filed them. The rule behind the calls is not given here.

Columns and labels:
MGC-803 [1] = test: Induction of apoptosis in human MGC-803 cells assessed as early apoptotic cells at 75 nmol/L measured after 48 hrs by Annexin V-FITC/propidium iodide staining based flow cytometry (reference value: 2.2%); assay type: functional
MGC-803 [2] = test: Induction of apoptosis in human MGC-803 cells assessed as down regulation of c-IAP1 expression at 150 nmol/L measured after 24 hrs in presence of protein synthesis inhibitor CHX by Western blot analysis; assay type: functional, cell-based
[3] = target: T1, NEDD8-activating enzyme E1 regulatory subunit (Homo sapiens) (UniProt Q13564); test: Stabilization of NAE1 (unknown origin) at 150 nmol/L by CETSA; settings: filed as activator
T1 sequence (whole entry): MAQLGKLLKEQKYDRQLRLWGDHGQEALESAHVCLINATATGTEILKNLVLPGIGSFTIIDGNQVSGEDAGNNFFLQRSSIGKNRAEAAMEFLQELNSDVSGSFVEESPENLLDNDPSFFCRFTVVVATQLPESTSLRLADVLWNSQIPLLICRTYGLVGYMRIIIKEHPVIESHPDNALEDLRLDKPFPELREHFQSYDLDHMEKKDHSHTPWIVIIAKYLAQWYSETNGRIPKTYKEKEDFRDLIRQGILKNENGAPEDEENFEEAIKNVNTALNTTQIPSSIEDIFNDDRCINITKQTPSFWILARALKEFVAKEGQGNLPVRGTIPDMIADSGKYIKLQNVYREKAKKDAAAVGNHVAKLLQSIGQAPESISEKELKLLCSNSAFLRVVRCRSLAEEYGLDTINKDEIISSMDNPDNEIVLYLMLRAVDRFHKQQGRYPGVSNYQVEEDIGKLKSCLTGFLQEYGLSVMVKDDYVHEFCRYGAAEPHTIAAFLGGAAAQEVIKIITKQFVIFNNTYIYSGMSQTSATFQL

MGC-803 [4] = test: Induction of morphological changes in human MGC-803 cells assessed as cell rounding at 50 to 150 nmol/L measured after 48 hrs by bright field microscopic analysis; assay type: functional, cell-based; settings: dose 50-150 nmol/L
MGC-803 [5] = test: Induction of apoptosis in human MGC-803 cells assessed as increase in activated caspase-9 expression at 50 to 150 nmol/L measured after 48 hrs by Western blot analysis; assay type: functional, cell-based; settings: dose 50-150 nmol/L
MGC-803 [6] = test: Antiproliferative activity against human MGC-803 cells measured after 48 hrs by MTT assay; assay type: functional, cell-based
MGC-803 [7] = test: Induction of apoptosis in human MGC-803 cells assessed as increase in activated caspase-2 expression at 50 to 150 nmol/L measured after 48 hrs by Western blot analysis; assay type: functional, cell-based; settings: dose 50-150 nmol/L
MGC-803 [8] = test: Induction of morphological changes in human MGC-803 cells assessed as nuclear condensation at 50 to 150 nmol/L measured after 48 hrs by DAPI staining based assay; assay type: functional, cell-based; settings: dose 50-150 nmol/L
MGC-803 [9] = test: Induction of apoptosis in human MGC-803 cells assessed as early apoptotic cells at 150 nmol/L measured after 48 hrs by Annexin V-FITC/propidium iodide staining based flow cytometry (reference value: 2.2%); assay type: functional
MGC-803 [10] = test: Induction of apoptosis in human MGC-803 cells assessed as upregulation of Bax expression at 50 to 150 nmol/L measured after 48 hrs by Western blot analysis; assay type: functional, cell-based; settings: dose 50-150 nmol/L
MCF7 = test: Antiproliferative activity against human MCF7 cells measured after 48 hrs by MTT assay; assay type: functional, cell-based; settings: MCF7, 48 h
MGC-803 [11] = test: Induction of apoptosis in human MGC-803 cells assessed as necrotic cells at 100 nmol/L measured after 48 hrs by Annexin V-FITC/propidium iodide staining based flow cytometry (reference value: 0.5%); assay type: functional
MGC-803 [12] = test: Cell cycle arrest in human MGC-803 cells assessed as accumulation at S phase at 100 nmol/L measured after 48 hrs by propidium iodide staining based flow cytometry (reference value: 34.48%); assay type: functional
MGC-803 [13] = test: Cell cycle arrest in human MGC-803 cells assessed as accumulation at S phase at 150 nmol/L measured after 48 hrs by propidium iodide staining based flow cytometry (reference value: 34.48%); assay type: functional
MGC-803 [14] = test: Induction of apoptosis in human MGC-803 cells assessed as upregulation of Bad expression at 50 to 150 nmol/L measured after 48 hrs by Western blot analysis; assay type: functional, cell-based; settings: dose 50-150 nmol/L
MGC-803 [15] = test: Induction of apoptosis in human MGC-803 cells assessed as necrotic cells at 50 nmol/L measured after 48 hrs by Annexin V-FITC/propidium iodide staining based flow cytometry (reference value: 0.5%); assay type: functional
MGC-803 [16] = test: Induction of apoptosis in human MGC-803 cells assessed as necrotic cells at 150 nmol/L measured after 48 hrs by Annexin V-FITC/propidium iodide staining based flow cytometry (reference value: 0.5%); assay type: functional
MGC-803 [17] = test: Antitumor activity against human MGC-803 cells xenografted in mouse assessed as reduction in tumor volume at 100 to 150 mg/kg, sc measured after 28 days by caliper method; assay type: functional, organism-based; settings: dose 100-150 mg/kg, time 28.0 day
MGC-803 [18] = test: Cell cycle arrest in human MGC-803 cells assessed as accumulation at G1 phase at 100 nmol/L measured after 48 hrs by propidium iodide staining based flow cytometry (reference value: 40.61%); assay type: functional
MGC-803 [19] = test: Induction of apoptosis in human MGC-803 cells assessed as early apoptotic cells at 100 nmol/L measured after 48 hrs by Annexin V-FITC/propidium iodide staining based flow cytometry (reference value: 2.2%); assay type: functional
MGC-803 [20] = test: Antiproliferative activity against human MGC-803 cells assessed as cell viability measured after 48 hrs in presence of NEDDylation inhibitor MLN4924 by MTT assay relative to control; assay type: functional
MGC-803 [21] = test: Induction of apoptosis in human MGC-803 cells assessed as early apoptotic cells at 50 nmol/L measured after 48 hrs by Annexin V-FITC/propidium iodide staining based flow cytometry (reference value: 2.2%); assay type: functional
MGC-803 [22] = test: Induction of apoptosis in human MGC-803 cells assessed as increase in cleaved PARP expression at 150 nmol/L measured after 24 hrs in presence of NEDDylation inhibitor MLN4924 by Western blot analysis; assay type: functional, cell-based
MGC-803 [23] = test: Cell cycle arrest in human MGC-803 cells assessed as accumulation at G2 phase at 100 nmol/L measured after 48 hrs by propidium iodide staining based flow cytometry (reference value: 24.91%); assay type: functional
MGC-803 [24] = test: Cell cycle arrest in human MGC-803 cells assessed as accumulation at G1 phase at 50 nmol/L measured after 48 hrs by propidium iodide staining based flow cytometry (reference value: 40.61%); assay type: functional
MGC-803 [25] = test: Induction of apoptosis in human MGC-803 cells assessed as late apoptotic cells at 50 nmol/L measured after 48 hrs by Annexin V-FITC/propidium iodide staining based flow cytometry (reference value: 5.6%); assay type: functional
MGC-803 [26] = test: Induction of apoptosis in human MGC-803 cells assessed as down regulation of XIAP expression at 50 to 150 nmol/L measured after 48 hrs by Western blot analysis; assay type: functional, cell-based; settings: dose 50-150 nmol/L
MGC-803 [27] = test: Cell cycle arrest in human MGC-803 cells assessed as accumulation at S phase at 50 nmol/L measured after 48 hrs by propidium iodide staining based flow cytometry (reference value: 34.48%); assay type: functional
MGC-803 [28] = test: Induction of apoptosis in human MGC-803 cells assessed as down regulation of c-IAP1 expression at 50 to 150 nmol/L measured after 48 hrs by Western blot analysis; assay type: functional, cell-based; settings: dose 50-150 nmol/L

Question: How did the Activity (MGC-803 [1]) turn out when `COc1ccc(CN(C(=O)Cc2cccs2)c2cc(OC)c(OC)c(OC)c2)cc1` was run?
Answer: The Activity was 12.6%.

Question: What about the Activity (MGC-803 [2]) of the same compound?
Answer: The Activity was “Active”.

Question: And the Activity [3]?
Answer: Its Activity is “Active”.

Question: What about the Activity (MGC-803 [4]) of the same compound?
Answer: Its Activity is “Active”.

Question: What about the Activity (MGC-803 [5]) of the same compound?
Answer: The Activity was “Active”.

Question: And the Activity (MGC-803 [6])?
Answer: The Activity was “Dose-dependent effect”.

Question: And the IC50 (MGC-803 [6]; MGC-803, 48 h)?
Answer: The IC50 was 0.09 µM.

Question: What about the Activity (MGC-803 [7]) of the same compound?
Answer: The Activity was “Active”.

Question: What about the Activity (MGC-803 [8]) of the same compound?
Answer: The Activity was “Active”.

Question: And the Activity (MGC-803 [9])?
Answer: Its Activity is 39.9%.

Question: And the Activity (MGC-803 [10])?
Answer: Its Activity is “Active”.

Question: And the IC50 (MCF7)?
Answer: The IC50 was 0.1 µM.

Question: What about the Activity (MGC-803 [11]) of the same compound?
Answer: The Activity was 2.5%.

Question: And the Activity (MGC-803 [12])?
Answer: Its Activity is 21.52%.

Question: And the Activity (MGC-803 [13])?
Answer: Its Activity is 16.21%.

Question: What about the Activity (MGC-803 [14]) of the same compound?
Answer: The Activity was “Active”.

Question: What about the Activity (MGC-803 [15]) of the same compound?
Answer: Its Activity is 0.6%.

Question: And the Activity (MGC-803 [16])?
Answer: The Activity was 3.8%.

Question: What about the Activity (MGC-803 [17]) of the same compound?
Answer: Its Activity is “Active”.

Question: What about the Activity (MGC-803 [18]) of the same compound?
Answer: Its Activity is 37.76%.

Question: What about the Activity (MGC-803 [19]) of the same compound?
Answer: Its Activity is 42.4%.

Question: What about the Activity (MGC-803 [20]) of the same compound?
Answer: Its Activity is 64.2%.

Question: What about the Activity (MGC-803 [21]) of the same compound?
Answer: Its Activity is 5.2%.

Question: What about the Activity (MGC-803 [22]) of the same compound?
Answer: Its Activity is “inactive”.

Question: What about the Activity (MGC-803 [23]) of the same compound?
Answer: Its Activity is 36.03%.

Question: What about the Activity (MGC-803 [24]) of the same compound?
Answer: The Activity was 37.2%.

Question: And the Activity (MGC-803 [25])?
Answer: The Activity was 6.5%.

Question: What about the Activity (MGC-803 [26]) of the same compound?
Answer: Its Activity is “Active”.

Question: And the Activity (MGC-803 [27])?
Answer: The Activity was 27.68%.

Question: What about the Activity (MGC-803 [28]) of the same compound?
Answer: Its Activity is “Active”.
